Laboratory results published in patent US10278959B2, “Ready to use ketorolac formulations” (RTU Pharmaceuticals, LLC, priority 2010, dated 2019).

Legend:
Assay type in all cases: physicochemical
[1] = Acid-catalyzed degradation, HPLC purity
Method: (§1) Degradation products for ketorolac tromethamine were generated under acidic and basic conditions for reference when evaluating HPLC chromatograms for purity. This ensures differentiation between degradants, impurities, and peaks which are both impurities and degradants. For the acid-catalyzed degradation, 4.92 mg of ketorolac tromethamine was added to a scintillation vial, followed by 10 mL of H2O, and the pH of the resulting colorless solution was adjusted to pH 1.60 with H3PO4. Aliquots of this solution were placed in capped amber HPLC vials in an 85° C. oven for the indicated amount of time, then analyzed by HPLC using the purity method outlined in Table 3. For the base catalyzed degradation, 4.92 mg of ketorolac tromethamine was added to a scintillation vial, followed by 10 mL of H2O, and the resulting colorless solution was adjusted to pH 12.09 with NaOH. Aliquots of this solution were placed in capped amber HPLC vials in an 85° C. oven for the indicated amount of time, then analyzed by HPLC using the purity method outlined in Table 3.

[2] = Base-catalyzed degradation, HPLC purity
Method: as §1

[3] = Light Stability Study (ambient light), HPLC purity
Method: The clear scintillation vial was capped and placed on the windowsill, exposing the solution to both ambient light and temperature conditions. Aliquots (500 μL) were removed at various time points and diluted with an equal volume of H2O in an amber HPLC vial. The diluted solution was then analyzed by HPLC for the purity of ketorolac tromethamine.

[4] = Stability Study B in Baxter IntraVia bags, HPLC purity; conditions: heat for extended periods of time
Method: Once all materials were added to the volumetric flask, it was filled to the line with H2O. The flask was magnetically stirred if any undissolved material was present. The formulations were then purged with N2 for 5 minutes before the bag filling process began. The Baxter IntraVia bags were filled by mass (80 g±1 g) using a peristaltic pump to feed the solution into each bag. A 2-way valve were placed in the solution filling line for sterile filtration and to regulate flow, respectively. For each formulation, 24 bags were filled.
All bags were used in the stability study without exposure to autoclave (or simulated autoclave) conditions. All bags were pulled within 1 day time points of 0, 4, 7, 14, 28 and 42 days and allowed to equilibrate to room temperature before sampling. Sampling of the bags for HPLC analysis occurred using a 5 cc disposable syringe with 21 gauge needle through the drug injection port. Approximately 1.5 mL of each formulation was transferred to an amber HPLC vial and analyzed within 12 hours of sampling.
This study included 3 formulations at 3 different temperatures (40° C., 60° C., and 80° C.) with time points over 6 weeks. Stability Study A provided information to structure Stability Study B with respect to the ideal parameters. […] Table 8 details the measured purity by HPLC of formulations 7, 8, and 10.

In the case of `O=C(c1ccccc1)c1ccc2n1CCC2C(=O)O` (centres unmarked) [Ketorolac tromethamine], the “HPLC Purity” value ([1]; pH 1.60, 85° C., 2.5 hours) is reported as 98.96%, the “HPLC Purity” value ([1]; pH 1.60, 85° C., 4 hours) is reported as 98.92% and the “HPLC Purity” value ([1]; pH 1.60, 85° C., 24 hours) is reported as 98.87%. For the same compound, the “HPLC Purity” value ([1]; pH 1.60, 85° C., 40 hours) was 98.08%, the “HPLC Purity” value ([1]; pH 1.60 with H3PO4, 85° C., 1.5 hours) was 99.02% and the “HPLC Purity” value ([2]; pH 12.09, 85° C., 2.5 hours) was 99.66%. The “HPLC Purity” value ([2]; pH 12.09, 85° C., 4 hours) was 99.62%, the “HPLC Purity” value ([2]; pH 12.09, 85° C., 24 hours) was 99.28% and the “HPLC Purity” value ([2]; pH 12.09, 85° C., 40 hours) was 98.97%. The “HPLC Purity” value ([2]; pH 12.09 with NaOH, 85° C., 1.5 hours) was 99.67%, the Purity ([3]; ambient light and temperature, clear vial, in H2O, 0 days) was 99.62% and the Purity ([3]; ambient light, 1 day) was 99.62%. The Purity ([3]; ambient light, 3 days) was 99.60%, the Purity ([3]; ambient light, 5 days) was 99.61% and the Purity ([3]; ambient light, 12 days) was 99.60%. The Purity ([3]; ambient light, 41 days) was 97.03%, the Purity ([3]; ambient light, 48 days) was 96.24% and the Purity ([3]; ambient light, 62 days) was 93.27%. The Purity ([3]; ambient light, 76 days) was 90.50% and the “stability upon exposure to heat” value [4] was “stable”.
